Experiment [1] has as its target T1, leukotriene D4 (LTD4) induced contraction of guinea pig tracheal tissues (Cavia porcellus, UniProt Q2NNR5).
T1 construct: Guinea pig (adult male albino Hartley strain) tracheal spiral strips; from tissue; host or cells: guinea pig trachea (spiral strips, adult male albino Hartley strain)
T1 sequence (Q2NNR5 1-340): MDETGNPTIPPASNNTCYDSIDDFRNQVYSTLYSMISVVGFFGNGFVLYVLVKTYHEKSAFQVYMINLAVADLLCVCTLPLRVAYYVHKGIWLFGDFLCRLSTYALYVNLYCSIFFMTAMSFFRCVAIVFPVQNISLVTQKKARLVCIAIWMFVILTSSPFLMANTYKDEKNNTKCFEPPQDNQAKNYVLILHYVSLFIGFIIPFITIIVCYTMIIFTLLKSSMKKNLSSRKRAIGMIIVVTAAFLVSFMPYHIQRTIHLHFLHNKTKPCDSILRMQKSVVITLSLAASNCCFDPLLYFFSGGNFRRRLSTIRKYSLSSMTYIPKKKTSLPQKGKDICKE
Description: In vitro inhibition of LTD4-induced contraction of guinea pig tracheal spiral strips (pA2). The class given is cell-based, guinea pig (adult male albino Hartley strain). The following applies: for Kb: In vitro, LTD4, guinea pig trachea, EC30 relative to carbachol, 30 min pretreatment. On the procedure: (§1) The leukotriene antagonist activity of the compounds of this invention is measured by the ability of the compound to inhibit leukotriene induced contraction of guinea pig tracheal tissues in vitro and to inhibit leukotriene induced bronchoconstriction in guinea pigs in vivo. The following methodologies were employed:
In vitro: Guinea pig (adult male albino Hartley strain) tracheal spiral strips of approximate dimensions 2 to 3 mm cross-sectional width and 3.5 cm length were bathed in modified Krebs buffer in jacketed 10 ml tissue bath and continously aerated with 95% O2 /5% CO2. The tissues were connected via silk suture to force displacement transducers for recording isometric tension. The tissues were equilibrated for 1 hr., pretreated for 15 minutes with meclofenamic acid (1 μM) to remove intrinsic prostaglandin responses, and then pretreated for an additional 30 minutes with either the test compound or vehicle control. A cumulative concentration-response curve for LTD4 on triplicate tissues was generated by successive increases in the bath concentration of the LTD4. In order to minimize intertissue variability, the contractions elicited by LTD4 were standardized as a percentage of the maximum response obtained to a reference agonist, carbachol (10 μM).
(§2) Calculations: The averages of the triplicate LTD4 concentration-response curves both in the presence and absence of the test compound were plotted on log graph paper. The concentration of LTD4 needed to elicit 30% of the contraction elicited by carbachol was measured and defined as the EC30. The pA2 value for the test compound was determined by the following equations: [formula] In vivo: Anesthetized, spontaneously breathing guinea pigs (Adult male albino Hartley strain) were monitored on a Buxco pulmonary mechanics computer. Changes in airway resistance (RL) were calculated by the computer on a breath-by-breath basis at isovolumic points from signals measuring airflow and transpulmonary pressure using differential pressure transducers. Animals received either test compound or vehicle control intravenously via the jugular vein. LTD4 was then injected into the jugular vein. The bronchoconstriction produced was reflected by % changes in airways resistance relative to the baseline values obtained prior to injection of the test compound or vehicle control. Each guinea pig received either vehicle control or test compound.

Experiment [2] concerns leukotriene (LTD4) induced bronchoconstriction in guinea pigs. Kind of experiment: In vivo inhibition of LTD4-induced bronchoconstriction in anesthetized, spontaneously breathing guinea pigs (airway resistance, RL). More on the design: species or system guinea pig (adult male albino Hartley strain). The following applies: Cavia porcellus, intravenous, LTD4 challenge, guinea pig, read-out: RL (average % inhibition of change in airway resistance). On the procedure:
as §1, §2
Calculations: The average of 3-6 animals per treatment was calculated using the % changes in the pulmonary parameters for control and test compound-treated animals. The average % inhibition by the test compound was calculated from the following equation: [formula]

Counter-ions that a name gives are not always drawn.

As to `CCCCCCCCCCCC/C=C\[C@H](SCCC(=O)O)[C@H](O)CCC(=O)O` (relative stereo) [Example 2, 4-hydroxy-5-[(2-carboxyethyl)thio]-6(Z)-nonadecenoic acid], in experiment [1], the Kb was 0.631 µM. Besides, in experiment [2], the inhibition in vivo at 5 mg/kg is 91%.

On to `CCCCCCCCCCCC/C=C\[C@H](SCCC(=O)NCC(=O)O)[C@H](O)CCC(=O)O` (relative stereo) [Example 3, 5-[(3-carboxymethylamino-3-oxopropyl)thio]-4-hydroxy-6(Z)-nonadecenoic acid], for which the Kb in experiment [1] was 0.631 µM. In experiment [2], the inhibition in vivo at 5 mg/kg was found to be 36%.

For the compound `CCCCCCCCCCCC/C=C\[C@H](SCCC(=O)N(C)CC(=O)O)[C@H](O)CCC(=O)O` (relative stereo) [Example 4, 5-[(3-carboxymethyl-N-methylamino-3-oxopropyl)thio]-4-hydroxy-6(Z)-nonadecenoic acid], the inhibition in vivo at 5 mg/kg in experiment [2] stood at 90%.

For `CCCCCCCCCCCC/C=C\[C@H](SCC(=O)O)[C@H](O)CCC(=O)O` (relative stereo) [Example 5, 5-[(carboxymethyl)thio]-4-hydroxy-6(Z)-nonadecenoic acid], the Kb in experiment [1] is 1.26 µM.

As to `CCCCCCCCCCCC/C=C\[C@H](SCCCC(=O)O)[C@H](O)CCC(=O)O` (relative stereo) [Example 6, 5-[(3-carboxypropyl)thio]-4-hydroxy-6(Z)-nonadecenoic acid], the Kb in experiment [1] was 0.631 µM. Also, the inhibition in vivo at 5 mg/kg in experiment [2] turned out to be 88%.

Take `CCCCCCCCCCCC/C=C\[C@H](SCCC(N)=O)[C@H](O)CCC(=O)O` (relative stereo) [Example 7, 5-[[2-(aminocarbonyl)ethyl]thio]-4-hydroxy-6(Z)-nonadecenoicacid]: the Kb in experiment [1] was 7.94 µM. Moreover, in experiment [2], the inhibition in vivo at 5 mg/kg was 38%.

Take `CCCCCCCCCCCC/C=C\[C@H](SCCC(=O)O)[C@H](O)CCC(N)=O` (relative stereo) [Example 12, 5-[(2-carboxyethyl)thio]-4-hydroxy-6(Z)-nonadecenamide]: the Kb in experiment [1] was 3.98 µM.

`CCCCCCCCCC/C=C\[C@H](SCCC(=O)O)[C@H](O)CCC(=O)O` (relative stereo) [Example 14, 4-hydroxy-5-[(2-carboxyethyl)thio]-6(Z)-heptadecenoic acid]: the Kb in experiment [1] was 5.01 µM.

For `CCCCCCCCCCCCCC/C=C\[C@H](SCCC(=O)O)[C@H](O)CCC(=O)O` (relative stereo) [Example 15, 4-hydroxy-5-[(2-carboxyethyl)thio]-6(Z)-heneicosenoic acid], in experiment [1], the Kb was 7.94 µM.

For `CCCCCCCCCCCC/C=C\[C@H](SCC(N)C(=O)NCC(=O)O)[C@H](O)CCC(=O)O` (single isomer, unassigned; isomer 4) [Example 1(i) 4(R),5(S) isomer, hydrate], in experiment [1], the Kb is 6.31 µM. Moreover, in experiment [2], the inhibition in vivo at 5 mg/kg worked out at 96%.

In the case of `CCCCCCCCCCCC/C=C\[C@@H](SCC(N)C(=O)NCC(=O)O)[C@@H](O)CCC(=O)O` (single isomer, unassigned; isomer 5) [Example 1(i) 4(S),5(R) isomer, 5-[(2-amino-3-carboxymethylamino-3-oxopropyl)thio]-4-hydroxy-6(Z)-nonadecenoic acid], the Kb in experiment [1] was 10 µM. The “partial agonist (footnote to pA2)” value in experiment [1] (footnote (c) to pA2 5.0) is recorded as “partial agonist”.

As for `CCCCCCCCCCCC/C=C\[C@H](SCC(N)C(=O)O)[C@H](O)CCC(=O)O` (stereo partly drawn) [Example 8(c), 4(R)-Hydroxy-5(S)-[(2-amino-2-carboxyethyl)thio]-6(Z)-nonadecenoic acid, sodium salt], in experiment [1], the Kb is 7.94 µM.

In the case of `CCCCCCCCCCCC/C=C\[C@@H](SCC(N)C(=O)O)[C@@H](O)CCC(=O)O` (stereo partly drawn) [Example 8(d), 4(S)-Hydroxy-5(R)-[(2-amino-2-carboxyethyl)thio]-6(Z)-nonadecenoic acid, sodium salt], in experiment [1], the Kb is 7.94 µM.

For the compound `CCCCCCCCCCCC/C=C\[C@H](SCC(N)C(=O)NCC(N)=O)[C@H](O)CCC(=O)O` (some centres unmarked) [Example 9], the Kb in experiment [1] was 3.16 µM. In addition, in experiment [2], the inhibition in vivo at 5 mg/kg amounted to 98%.

Turning to `CCCCCCCCCCCC/C=C\C(SCCC(=O)O)C(O)CC(=O)O` (centres unmarked) [Example 10, 3-hydroxy-4-[(2-carboxyethyl)thio]-5(Z)-octadecenoic acid], the inhibition in vivo at 10 mg/kg in experiment [2] came to 88%.

On to `CCCCCCCCCCCC/C=C\C(CCCC(=O)O)SCCC(=O)O` (centres unmarked) [Example 11, 5-[(2-carboxyethyl)thio]-6(Z)-non-adecenoic acid], for which, in experiment [1], the Kb is 3.16 µM. The inhibition in vivo at 10 mg/kg in experiment [2] worked out at 98%.

`CCCCCCCCCCCC/C=C\C(SCC(N)C(=O)NCC(=O)O)C(O)CCC(N)=O` (centres unmarked) [Example 13]: the Kb in experiment [1] is 12.6 µM.

Consider `CCCCCCCCCCCC/C=C\C(CCC(=O)O)SCCC(=O)O` (centres unmarked) [Example 16, 4-[(2-carboxyethyl)thio]-5(Z)-octadecenoic acid], for which the Kb in experiment [1] was 0.251 µM.

Source of the values: US4775662A, “Leukotriene antagonists” (SmithKline Beckman Corporation, priority 1987, dated 1988).
